Test results reported in ChEMBL document CHEMBL1143427, “Interactions of ceftobiprole with beta-lactamases from molecular classes A to D” (Antimicrob Agents Chemother, 2007).
Converted amounts (≈) assume the structure as drawn.

Key:
Type in all cases: functional
Pseudomonas aeruginosa [1] = assay: Antibacterial activity against Pseudomonas aeruginosa 18SH producing beta lactamase AmpC by broth microdilution method
Serratia marcescens [2] = assay: Antibacterial activity against Serratia marcescens 4104 producing beta lactamase AmpC by broth microdilution method
Enterobacter cloacae [3] = assay: Antibacterial activity against Enterobacter cloacae 4081 producing beta lactamase AmpC (E2) by broth microdilution method
Enterobacter cloacae [4] = assay: Antibacterial activity against Enterobacter cloacae 908R producing beta lactamase AmpC by broth microdilution method
Staphylococcus aureus [5] = assay: Antibacterial activity against Staphylococcus aureus 4116 producing betalactamase PC1 by broth microdilution method
Escherichia coli [6] = assay: Antibacterial activity against Escherichia coli 11732 producing beta lactamase CTX-M-15 by broth microdilution method
Klebsiella oxytoca = assay: Antibacterial activity against Klebsiella oxytoca 4076 producing beta lactamase K1 by broth microdilution method
Morganella morganii = assay: Antibacterial activity against Morganella morganii 2574 producing beta lactamase AmpC by broth microdilution method
Pseudomonas aeruginosa [7] = assay: Antibacterial activity against Pseudomonas aeruginosa HPA101-1477 producing beta lactamase IMP1 by broth microdilution method
Enterobacter cloacae [8] = assay: Antibacterial activity against Enterobacter cloacae 4080 producing beta lactamase AmpC (P99) by broth microdilution method
Enterobacter cloacae [9] = assay: Antibacterial activity against Enterobacter cloacae 4092 producing beta lactamase AmpC (E2) by broth microdilution method
Pseudomonas aeruginosa [10] = assay: Antibacterial activity against Pseudomonas aeruginosa 4083 producing beta lactamase OXA10 by broth microdilution method
Serratia marcescens [11] = assay: Antibacterial activity against Serratia marcescens 7554 producing beta lactamase SME3 by broth microdilution method
Pseudomonas aeruginosa [12] = assay: Antibacterial activity against Pseudomonas aeruginosa 7052 producing beta lactamase VIM2 by broth microdilution method
Escherichia coli [13] = assay: Antibacterial activity against Escherichia coli producing beta lactamase TEM1 by broth microdilution method
Klebsiella pneumoniae [14] = assay: Antibacterial activity against Klebsiella pneumoniae 4238 producing beta lactamase SHV1 by broth microdilution method
Klebsiella pneumoniae [15] = assay: Antibacterial activity against Klebsiella pneumoniae 4094 producing beta lactamase TEM26 by broth microdilution method
Providencia stuartii = assay: Antibacterial activity against Providencia stuartii 2772 producing beta lactamase AmpC by broth microdilution method
Pseudomonas aeruginosa [16] = assay: Antibacterial activity against Pseudomonas aeruginosa MK-1184 producing beta lactamase AmpC by broth microdilution method
Pseudomonas aeruginosa [17] = assay: Antibacterial activity against Pseudomonas aeruginosa 4352 producing beta lactamase AmpC by broth microdilution method
Escherichia coli [18] = assay: Antibacterial activity against Escherichia coli 6226 producing beta lactamase KPC2 by broth microdilution method
Staphylococcus aureus [19] = assay: Antibacterial activity against methicillin-susceptible Staphylococcus aureus
Staphylococcus aureus [20] = assay: Antibacterial activity against methicillin-resistant Staphylococcus aureus

CC(C)(O/N=C(\C(=O)N[C@@H]1C(=O)N2C(C(=O)[O-])=C(C[n+]3ccccc3)CS[C@H]12)c1csc(N)n1)C(=O)O [CEFTAZIDIME]
MIC (Pseudomonas aeruginosa [1]): 32 µg/mL (≈ 58.5 µM) | MIC (Serratia marcescens [2]): 0.25 µg/mL (≈ 0.457 µM) | MIC (Enterobacter cloacae [3]): > 128 µg/mL | MIC (Enterobacter cloacae [4]): > 64 µg/mL | MIC (Staphylococcus aureus [5]): 4 µg/mL (≈ 7.32 µM) | MIC (Escherichia coli [6]): 32 µg/mL (≈ 58.5 µM) | MIC (Klebsiella oxytoca): 0.5 µg/mL (≈ 0.915 µM) | MIC (Morganella morganii): 1 µg/mL (≈ 1.83 µM) | MIC (Pseudomonas aeruginosa [7]): > 32 µg/mL | MIC (Enterobacter cloacae [8]): 64 µg/mL (≈ 117 µM) | MIC (Enterobacter cloacae [9]): 1 µg/mL (≈ 1.83 µM) | MIC (Pseudomonas aeruginosa [10]): 2 µg/mL (≈ 3.66 µM) | MIC (Serratia marcescens [11]): 0.5 µg/mL (≈ 0.915 µM) | MIC (Pseudomonas aeruginosa [12]): 64 µg/mL (≈ 117 µM) | MIC (Escherichia coli [13]): 0.5 µg/mL (≈ 0.915 µM) | MIC (Klebsiella pneumoniae [14]): 2 µg/mL (≈ 3.66 µM) | MIC (Klebsiella pneumoniae [15]): > 256 µg/mL | MIC (Providencia stuartii): 4 µg/mL (≈ 7.32 µM) | MIC (Pseudomonas aeruginosa [16]): 32 µg/mL (≈ 58.5 µM) | MIC (Pseudomonas aeruginosa [17]): 4 µg/mL (≈ 7.32 µM) | MIC (Escherichia coli [18]): 32 µg/mL (≈ 58.5 µM)

CO/N=C(\C(=O)N[C@@H]1C(=O)N2C(C(=O)[O-])=C(C[N+]3(C)CCCC3)CS[C@H]12)c1csc(N)n1
MIC (Pseudomonas aeruginosa [1]): 32 µg/mL (≈ 66.6 µM) | MIC (Serratia marcescens [2]): 0.12 µg/mL (≈ 0.25 µM) | MIC (Staphylococcus aureus [5]): 2 µg/mL (≈ 4.16 µM) | MIC (Escherichia coli [6]): 16 µg/mL (≈ 33.3 µM) | MIC (Klebsiella oxytoca): 2 µg/mL (≈ 4.16 µM) | MIC (Morganella morganii): 0.03 µg/mL (≈ 0.0624 µM) | MIC (Pseudomonas aeruginosa [7]): > 32 µg/mL | MIC (Pseudomonas aeruginosa [10]): 8 µg/mL (≈ 16.6 µM) | MIC (Serratia marcescens [11]): 0.25 µg/mL (≈ 0.52 µM) | MIC (Pseudomonas aeruginosa [12]): 128 µg/mL (≈ 266 µM) | MIC (Escherichia coli [13]): 0.12 µg/mL (≈ 0.25 µM) | MIC (Klebsiella pneumoniae [14]): 0.25 µg/mL (≈ 0.52 µM) | MIC (Klebsiella pneumoniae [15]): 4 µg/mL (≈ 8.32 µM) | MIC (Providencia stuartii): 0.25 µg/mL (≈ 0.52 µM) | MIC (Pseudomonas aeruginosa [16]): 32 µg/mL (≈ 66.6 µM) | MIC (Pseudomonas aeruginosa [17]): 2 µg/mL (≈ 4.16 µM) | MIC (Escherichia coli [18]): 16 µg/mL (≈ 33.3 µM)

Nc1nc(/C(=N/O)C(=O)N[C@@H]2C(=O)N3C(C(=O)O)=C(/C=C4\CCN([C@@H]5CCNC5)C4=O)CS[C@H]23)ns1 [CEFTOBIPROLE]
MIC (Pseudomonas aeruginosa [1]): 16 µg/mL (≈ 29.9 µM) | MIC90 (Staphylococcus aureus [19]): 0.5 µg/mL (≈ 0.935 µM) | MIC90 (Staphylococcus aureus [20]): 2 µg/mL (≈ 3.74 µM) | MIC (Serratia marcescens [2]): 0.12 µg/mL (≈ 0.224 µM) | MIC (Enterobacter cloacae [3]): 1 µg/mL (≈ 1.87 µM) | MIC (Enterobacter cloacae [4]): 4 µg/mL (≈ 7.48 µM) | MIC (Staphylococcus aureus [5]): 0.25 µg/mL (≈ 0.468 µM) | MIC (Escherichia coli [6]): > 128 µg/mL | MIC (Klebsiella oxytoca): > 32 µg/mL | MIC (Morganella morganii): 0.03 µg/mL (≈ 0.0561 µM) | MIC (Pseudomonas aeruginosa [7]): > 32 µg/mL | MIC (Enterobacter cloacae [8]): 2 µg/mL (≈ 3.74 µM) | MIC (Enterobacter cloacae [9]): 0.12 µg/mL (≈ 0.224 µM) | MIC (Pseudomonas aeruginosa [10]): 128 µg/mL (≈ 239 µM) | MIC (Serratia marcescens [11]): 0.25 µg/mL (≈ 0.468 µM) | MIC (Pseudomonas aeruginosa [12]): > 128 µg/mL | MIC (Escherichia coli [13]): 0.5 µg/mL (≈ 0.935 µM) | MIC (Klebsiella pneumoniae [14]): 0.5 µg/mL (≈ 0.935 µM) | MIC (Klebsiella pneumoniae [15]): 0.25 µg/mL (≈ 0.468 µM) | MIC (Providencia stuartii): 0.015 µg/mL (≈ 0.0281 µM) | MIC (Pseudomonas aeruginosa [16]): 32 µg/mL (≈ 59.9 µM) | MIC (Pseudomonas aeruginosa [17]): 4 µg/mL (≈ 7.48 µM) | MIC (Escherichia coli [18]): 16 µg/mL (≈ 29.9 µM)
